This is an account of results in patent US9415055B2, “Cyclic amines” (H. Lundbeck A/S, priority 2012, dated 2016).

In the assay the target is P2X7 receptor (Homo sapiens (Human), UniProt Q99572). Description: P2X7 FLIPR assay: antagonism of BzATP response in 293 HEK cells stably expressing P2X7 receptor. Format: cell-based. Particulars: FLIPR fluorescence (Fluo-4), agonist BzATP, 293 HEK cells stably transfected with P2X7 receptor. The essentials: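 Antagonist IC50 derived from FLIPR Tetra Fluo-4 calcium signal evoked by BzATP. Compound pre-incubation was 30 min at room temperature on P2X7-expressing HEK293 cells, seeded 24 h before in low-serum medium and dye-loaded 30 min at 37 °C then 30 min at RT.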
P2X7 receptor, sequence (Q99572 whole entry): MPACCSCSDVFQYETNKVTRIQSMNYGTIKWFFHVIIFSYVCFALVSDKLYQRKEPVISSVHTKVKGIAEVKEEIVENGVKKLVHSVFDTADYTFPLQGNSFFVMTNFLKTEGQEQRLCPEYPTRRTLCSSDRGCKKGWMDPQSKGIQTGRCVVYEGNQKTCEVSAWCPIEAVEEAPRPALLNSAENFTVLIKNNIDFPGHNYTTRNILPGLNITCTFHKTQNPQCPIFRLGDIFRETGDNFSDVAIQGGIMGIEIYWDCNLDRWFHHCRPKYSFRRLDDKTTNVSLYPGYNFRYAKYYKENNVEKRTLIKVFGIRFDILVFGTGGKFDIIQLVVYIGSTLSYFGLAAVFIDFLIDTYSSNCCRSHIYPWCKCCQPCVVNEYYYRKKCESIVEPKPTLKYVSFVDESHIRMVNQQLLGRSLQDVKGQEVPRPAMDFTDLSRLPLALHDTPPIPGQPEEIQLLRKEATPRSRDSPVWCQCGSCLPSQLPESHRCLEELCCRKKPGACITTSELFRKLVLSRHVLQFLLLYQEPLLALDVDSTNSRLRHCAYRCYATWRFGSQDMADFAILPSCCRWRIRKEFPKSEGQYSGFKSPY
The molecule `O=C(NCC(c1cnc(C(F)(F)F)nc1)N1CCOCC1)c1ccccc1Cl` (single isomer, unassigned; (-)) [(−)2-chloro-N-[2-morpholino-2-[2-(trifluoromethyl)pyrimidin-] [(−)2-Chloro-N-[2-morpholino-2-[2-(trifluoromethyl)pyrimidin-5-yl]ethyl]benzamide] returned an IC50 of 15 nM.
Molecule `COc1ccc(F)c(C(=O)NCC(c2cnc(C(F)(F)F)nc2)N2CCC(F)(F)CC2)c1Cl` (single isomer, unassigned; (-)) [(−)2-chloro-N-[2-(4,4-difluoro-1-piperidyl)-2-[2-(trifluorom] [(−)2-chloro-N-(2-(4,4-difluoropiperidin-1-yl)-2-(2-(trifluoromethyl)pyrimidin-5-yl)ethyl)-6-fluoro-3-methoxybenzamide] returned an IC50 of 31 nM.
`COc1ccc(C(CNC(=O)c2ccccc2C)N2CCCCC2)cc1` (centres unmarked) [N-[2-(4-Methoxy-phenyl)-2-piperidin-1-yl-ethyl]-2-methyl-benzamide]: the IC50 is 3900 nM.
The figure for `Cc1ncc(C(CNC(=O)c2ccc(Cl)cc2Cl)N2CCC(F)(F)CC2)cn1` (centres unmarked) [2,4-dichloro-N-(2-(4,4-difluoropiperidin-1-yl)-2-(2-methylpyrimidin-5-yl)ethyl)benzamide] is 44 nM.
`Cc1ncc(C(CNC(=O)c2c(F)cccc2Cl)N2CCCC(F)(F)C2)cn1` (single isomer, unassigned; (-)) [(−)2-chloro-N-[2-(3,3-difluoro-1-piperidyl)-2-(2-methylpyrim] [(−)2-chloro-6-fluoro-N-(2-(3,3-difluoropiperidin-1-yl)-2-(2-methylpyrimidin-5-yl)ethyl)benzamide]: the IC50 was found to be 280 nM.
In the case of `Cc1ncc(C(CNC(=O)c2cccc(Cl)c2Cl)N2CCCC(C)C2)cn1` (centres unmarked) [2,3-dichloro-N-(2-(3-methylpiperidin-1-yl)-2-(2-methylpyrimidin-5-yl)ethyl)benzamide], the IC50 was 170 nM.
Take `Cc1ncc(C(CNC(=O)c2cccc(Cl)c2Cl)N2CC3CCC2C3)cn1` (centres unmarked) [N-(2-(2-azabicyclo[2.2.1]heptan-2-yl)-2-(2-methylpyrimidin-5-yl)ethyl)-2,3-dichlorobenzamide]: the IC50 amounted to 3200 nM.
`COc1cccc(C(=O)NCC(c2cnc(C(F)(F)F)nc2)N2CCOCC2)c1Cl` (single isomer, unassigned; (-)) [(−)2-chloro-3-methoxy-N-[2-morpholino-2-[2-(trifluoromethyl)] [(−)2-chloro-3-methoxy-N-(2-morpholino-2-(2-(trifluoromethyl)pyrimidin-5-yl)ethyl)benzamide]: the IC50 was determined as 8.2 nM.
Take `COc1ccc(C(=O)NCC(c2cnc(C(F)(F)F)nc2)N2CCC(F)(F)CC2)c(Cl)c1` (single isomer, unassigned; (-)) [(−)2-chloro-N-[2-(4,4-difluoro-1-piperidyl)-2-[2-(trifluorom] [(−)2-chloro-4-methoxy-N-(2-(4,4-difluoropiperidin-1-yl)-2-(2-(trifluoromethyl)pyrimidin-5-yl)ethyl)benzamide]: the IC50 is 2.2 nM.
Then `COc1ccccc1C(=O)NCC(c1ccc(C(F)(F)F)nc1)N1CCOCC1` (single isomer, unassigned; (+)) [(+)-2-methoxy-N-(2-morpholino-2-(6-(trifluoromethyl)pyridin-] [(+)2-1\4ethoxy-N-[2-morpholin-4-yl-2-(6-trifluoromethyl-pyridin-3-yl)-ethyl]-benzamide], with 98 nM; and `CCc1ncc(C(CNC(=O)c2cccc(Cl)c2Cl)N2CCC(F)(F)CC2)cn1` (single isomer, unassigned; (-)) [(−)2,3-dichloro-N-[2-(4,4-difluoro-1-piperidyl)-2-(2-ethylpy] [(−)2,3-dichloro-N-(2-(4,4-difluoropiperidin-1-yl)-2-(2-ethylpyrimidin-5-yl)ethyl)benzamide], with 4.9 nM; and `Cc1cccc(C(=O)NC[C@H](c2ccc(Cl)cc2)N2CCOCC2)c1Cl` [2-Chloro-N-[(S)-2-(4-chloro-phenyl)-2-morpholin-4-yl-ethyl]-3-methyl-benzamide], with 0.53 nM.
The figure for `Cc1ncc(C(CNC(=O)c2cccc(F)c2Cl)N2CCC(F)(F)CC2)cn1` (single isomer, unassigned; (-)) [(−)2-chloro-N-[2-(4,4-difluoro-1-piperidyl)-2-(2-methylpyrim] [(−)2-chloro-3-fluoro-N-(2-(4,4-difluoropiperidin-1-yl)-2-(2-methylpyrimidin-5-yl)ethyl)benzamide] is 19 nM; for `O=C(NCC(c1cnc(C(F)(F)F)nc1)N1CCC(F)CC1)c1ccccc1Cl` (single isomer, unassigned; (+)) [(+)2-chloro-N-[2-(4-fluoro-1-piperidyl)-2-[2-(trifluoromethy] [(+)2-chloro-N-(2-(4-fluoropiperidin-1-yl)-2-(2-(trifluoromethyl)pyrimidin-5-yl)ethyl)benzamide] it is 15 nM; for `O=C(NCC(c1ccc(C(F)(F)F)nc1)N1CCC(F)(F)CC1)c1ccccc1Cl` (centres unmarked) [2-Chloro-N-[2-(4,4-difluoro-1-piperidyl)-2-[6-(trifluoromethyl)-3-pyridyl]ethyl]benzamide] it is 1.8 nM.
Then `O=C(NCC(c1cnc(C(F)(F)F)nc1)N1CCC(F)(F)CC1)c1cc(F)cc(Cl)c1Cl` (single isomer, unassigned; (-)) [(−)2,3-dichloro-N-[2-(4,4-difluoro-1-piperidyl)-2-[2-(triflu] [(−)2,3-dichloro-5-fluoro-N-(2-(4,4-difluoropiperidin-1-yl)-2-(2-(trifluoromethyl)pyrimidin-5-yl)ethyl)benzamide], with 2.2 nM; and `O=C(NCC(c1ccc(C(F)F)nc1)N1CCC(F)(F)CC1)c1cccc(Cl)c1Cl` (single isomer, unassigned; (-)) [(−)2,3-dichloro-N-[2-[6-(difluoromethyl)-3-pyridyl]-2-(4,4-d] [(−)2,3-dichloro-N-(2-(2-(difluoromethyl)pyridin-5-yl)-2-(4,4-difluoropiperidin-1-yl)ethyl)benzamide], with 4.2 nM.
As to `Cc1ncc(C(CNC(=O)c2c(F)cccc2Cl)N2CCC(F)(F)CC2)cn1` (single isomer, unassigned; (+)) [(+)2-chloro-N-[2-(4,4-difluoro-1-piperidyl)-2-(2-methylpyrim] [(+)2-chloro-6-fluoro-N-(2-(4,4-difluoropiperidin-1-yl)-2-(2-methylpyrimidin-5-yl)ethyl)benzamide], the IC50 stood at 19 nM.
`Cn1cc(C(CNC(=O)c2c(Cl)cccc2Cl)N2CCC(F)(F)CC2)cn1` (single isomer, unassigned; (+)) [(+)2,6-dichloro-N-[2-(4,4-difluoro-1-piperidyl)-2-(1-methylp] [(+)2,6-dichloro-N-(2-(4,4-difluoropiperidin-1-yl)-2-(1-methyl-1H-pyrazol-4-yl)ethyl)benzamide]: the IC50 is 56 nM.
In turn, `Cc1ccc(C(CNC(=O)c2cccc(F)c2Cl)N2CCC(F)(F)CC2)cn1` (single isomer, unassigned; (-)) [(−)2-chloro-N-[2-(4,4-difluoro-1-piperidyl)-2-(6-methyl-3-pr] [(−)2-chloro-3-fluoro-N-(2-(4,4-difluoropiperidin-1-yl)-2-(2-methylpyridin-5-yl)ethyl)benzamide] yielded an IC50 of 21 nM.
The molecule `Cc1ncc(C(CNC(=O)c2c(Cl)cccc2Cl)N2CCOCC2)cn1` (centres unmarked) [2,6-dichloro-N-(2-(2-methylpyrimidin-5-yl)-2-morpholinoethyl)benzamide] had an IC50 of 120 nM.
`Cc1ncc(C(CNC(=O)c2cccc(Cl)c2Cl)N2CCOCC2)cn1` (single isomer, unassigned; (+)) [(+)2,3-dichloro-N-[2-(2-methylpyrimidin-5-yl)-2-morpholino-e] [(+)2,3-Dichloro-N-[2-(2-methylpyrimidin-5-yl)-2-morpholino-ethyl]benzamide] gave an IC50 of 69 nM.
On to `COC1CCN(C(CNC(=O)c2cccc(Cl)c2Cl)c2cnc(C)nc2)CC1` (centres unmarked) [2,3-dichloro-N-(2-(4-methoxypiperidin-1-yl)-2-(2-methylpyrimidin-5-yl)ethyl)benzamide], for which the IC50 was found to be 3800 nM.
Then `Cn1cc(C(CNC(=O)c2c(Cl)cccc2Cl)N2CCC(F)(F)CC2)cn1` (single isomer, unassigned; (-)) [(−)2,6-dichloro-N-[2-(4,4-difluoro-1-piperidyl)-2-(1-methylp] [(−)2,6-dichloro-N-(2-(4,4-difluoropiperidin-1-yl)-2-(1-methyl-1H-pyrazol-4-yl)ethyl)benzamide], with 44 nM; and `O=C(NCC(c1ccc(F)cc1)N1CCOCC1)c1cccc(Cl)c1Cl` (centres unmarked) [2,3-Dichloro-N-[2-(4-fluoro-phenyl)-2-morpholin-4-yl-ethyl]-benzamide], with 11 nM.
The figure for `Cc1ccccc1C(=O)NC[C@H](c1ccc(Cl)cc1)N1CCOCC1` [N-[(S)-2-(4-Chloro-phenyl)-2-morpholin-4-yl-ethyl]-2-methyl-benzamide] is 9.3 nM.
The figure for `Cc1ncc(C(CNC(=O)c2c(Cl)cccc2Cl)N2CCC(F)(F)CC2)cn1` (single isomer, unassigned; (-)) [(−)2,6-dichloro-N-[2-(4,4-difluoro-1-piperidyl)-2-(2-methylp] [(−)2,6-dichloro-N-(2-(4,4-difluoropiperidin-1-yl)-2-(2-methylpyrimidin-5-yl)ethyl)benzamide] is 22 nM.
`CCc1ncc(C(CNC(=O)c2c(F)cccc2Cl)N2CCC(F)(F)CC2)cn1` (single isomer, unassigned; (+)) [(+)2-chloro-N-[2-(4,4-difluoro-1-piperidyl)-2-(2-ethylpyrimi] [(+)2-chloro-6-fluoro-N-(2-(4,4-difluoropiperidin-1-yl)-2-(2-ethylpyrimidin-5-yl)ethyl)benzamide] had an IC50 of 14 nM.
The figure for `O=C(NCC(c1cnc(C(F)(F)F)nc1)N1CCC(F)(F)CC1)c1cccc(Cl)c1Cl` (centres unmarked) [2,3-dichloro-N-(2-(4,4-difluoropiperidin-1-yl)-2-(2-(trifluoromethyl)pyrimidin-5-yl)ethyl)benzamide] is 0.65 nM.
